Test results published in US6358885B1, “Substituted phenylheterocyclic herbicides” (Mississippi State University, priority 1992, dated 2002).

Legend:
Assay in all cases: Test B preemergence/postemergence greenhouse plant response rating 0 to 10
Conditions in all cases: 0 to 10 scale
wheat = type: in vivo, Triticum aestivum
Method in brief: (§1)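 Planted seeds are treated preemergence with compound dissolved in a non-phytotoxic solvent, while postemergence applications go onto plants of two to eighteen cm. Plants stay in the greenhouse twelve to sixteen days and are then rated visually relative to controls.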

soybean = type: in vivo, Glycine max
Method in brief: as §1

bedstraw = type: in vivo, Galium aparine
Method in brief: as §1

cheatgrass = type: in vivo, Bromus secalinus
Method in brief: as §1

crabgrass = type: in vivo, Digitaria spp.
Method in brief: as §1

sorghum = type: in vivo, Sorghum bicolor
Method in brief: as §1

blackgrass = type: in vivo, Alopecurus myosuroides
Method in brief: as §1

barnyardgrass = type: in vivo, Echinochloa crus-galli
Method in brief: as §1

rape = type: in vivo, Brassica napus
Method in brief: as §1

wild oat = type: in vivo, Avena fatua
Method in brief: as §1

wild buckwheat = type: in vivo, Polygonum convolvulus
Method in brief: as §1

barley = type: in vivo, Hordeum vulgare
Method in brief: as §1

rice = type: in vivo, Oryza sativa
Method in brief: as §1

chickweed = type: in vivo, Stellaria media
Method in brief: as §1

cocklebur = type: in vivo, Xanthium pensylvanicum
Method in brief: as §1

corn = type: in vivo, Zea mays
Method in brief: as §1

lambsquarters = type: in vivo, Chenopodium album
Method in brief: as §1

velvetleaf = type: in vivo, Abutilon theophrasti
Method in brief: as §1

morningglory = type: in vivo, Ipomoea hederacea
Method in brief: as §1

purple nutsedge = type: in vivo, Cyperus rotundus
Method in brief: as §1

giant foxtail = type: in vivo, Setaria faberii
Method in brief: as §1

sugar beet = type: in vivo, Beta vulgaris
Method in brief: as §1

cotton = type: in vivo, Gossypium hirsutum
Method in brief: as §1

SMILES: O=C1COc2cc(F)c(-c3nn4c(c3Cl)CCCC4)cc2N1 [Compound 51]
- Plant response rating, Wheat (wheat; POSTEMERGENCE, Rate 50 g/ha): 3
- Plant response rating, Wheat (wheat; PREEMERGENCE, Rate 50 g/ha): 0
- Plant response rating, Wheat (wheat; Rate 200 g/ha, POSTEMERGENCE): 4
- Plant response rating, Wheat (wheat; Rate 200 g/ha, PREEMERGENCE): 2
- Plant response rating, Soybean (soybean; POSTEMERGENCE, Rate 50 g/ha): 8
- Plant response rating, Soybean (soybean; PREEMERGENCE, Rate 50 g/ha): 1
- Plant response rating, Soybean (soybean; Rate 200 g/ha, POSTEMERGENCE): 9
- Plant response rating, Soybean (soybean; Rate 200 g/ha, PREEMERGENCE): 8
- Plant response rating, Bedstraw (bedstraw; POSTEMERGENCE, Rate 50 g/ha): 10
- Plant response rating, Bedstraw (bedstraw; POSTEMERGENCE, Rate 200 g/ha): 10
- Plant response rating, Bedstraw (bedstraw; PREEMERGENCE, Rate 50 g/ha): 5
- Plant response rating, Bedstraw (bedstraw; Rate 200 g/ha, PREEMERGENCE): 10
- Plant response rating, Cheatgrass (cheatgrass; POSTEMERGENCE, Rate 50 g/ha): 4
- Plant response rating, Cheatgrass (cheatgrass; POSTEMERGENCE, Rate 200 g/ha): 4
- Plant response rating, Cheatgrass (cheatgrass; PREEMERGENCE, Rate 50 g/ha): 3
- Plant response rating, Cheatgrass (cheatgrass; Rate 200 g/ha, PREEMERGENCE): 5
- Plant response rating, Crabgrass (crabgrass; POSTEMERGENCE, Rate 50 g/ha): 4
- Plant response rating, Crabgrass (crabgrass; POSTEMERGENCE, Rate 200 g/ha): 5
- Plant response rating, Crabgrass (crabgrass; PREEMERGENCE, Rate 50 g/ha): 2
- Plant response rating, Crabgrass (crabgrass; Rate 200 g/ha, PREEMERGENCE): 9
- Plant response rating, Sorghum (sorghum; POSTEMERGENCE, Rate 50 g/ha): 4
- Plant response rating, Sorghum (sorghum; PREEMERGENCE, Rate 50 g/ha): 0
- Plant response rating, Sorghum (sorghum; Rate 200 g/ha, POSTEMERGENCE): 6
- Plant response rating, Sorghum (sorghum; Rate 200 g/ha, PREEMERGENCE): 0
- Plant response rating, Blackgrass (blackgrass; POSTEMERGENCE, Rate 50 g/ha): 6
- Plant response rating, Blackgrass (blackgrass; POSTEMERGENCE, Rate 200 g/ha): 6
- Plant response rating, Blackgrass (blackgrass; PREEMERGENCE, Rate 50 g/ha): 2
- Plant response rating, Blackgrass (blackgrass; Rate 200 g/ha, PREEMERGENCE): 6
- Plant response rating, Barnyardgrass (barnyardgrass; POSTEMERGENCE, Rate 50 g/ha): 8
- Plant response rating, Barnyardgrass (barnyardgrass; POSTEMERGENCE, Rate 200 g/ha): 9
- Plant response rating, Barnyardgrass (barnyardgrass; PREEMERGENCE, Rate 50 g/ha): 9
- Plant response rating, Barnyardgrass (barnyardgrass; Rate 200 g/ha, PREEMERGENCE): 9
- Plant response rating, Rape (rape; POSTEMERGENCE, Rate 50 g/ha): 7
- Plant response rating, Rape (rape; PREEMERGENCE, Rate 50 g/ha): 8
- Plant response rating, Rape (rape; Rate 200 g/ha, POSTEMERGENCE): 10
- Plant response rating, Rape (rape; Rate 200 g/ha, PREEMERGENCE): 10
- Plant response rating, Wild oat (wild oat; POSTEMERGENCE, Rate 50 g/ha): 2
- Plant response rating, Wild oat (wild oat; PREEMERGENCE, Rate 50 g/ha): 0
- Plant response rating, Wild oat (wild oat; Rate 200 g/ha, POSTEMERGENCE): 3
- Plant response rating, Wild buckwheat (wild buckwheat; POSTEMERGENCE, Rate 50 g/ha): 10
- Plant response rating, Wild buckwheat (wild buckwheat; PREEMERGENCE, Rate 50 g/ha): 10
- Plant response rating, Wild buckwheat (wild buckwheat; Rate 200 g/ha, POSTEMERGENCE): 10
- Plant response rating, Wild buckwheat (wild buckwheat; Rate 200 g/ha, PREEMERGENCE): 10
- Plant response rating, Barley (barley; POSTEMERGENCE, Rate 50 g/ha): 3
- Plant response rating, Barley (barley; POSTEMERGENCE, Rate 200 g/ha): 3
- Plant response rating, Barley (barley; PREEMERGENCE, Rate 50 g/ha): 0
- Plant response rating, Barley (barley; Rate 200 g/ha, PREEMERGENCE): 0
- Plant response rating, Rice (rice; POSTEMERGENCE, Rate 50 g/ha): 3
- Plant response rating, Rice (rice; PREEMERGENCE, Rate 50 g/ha): 0
- Plant response rating, Rice (rice; Rate 200 g/ha, POSTEMERGENCE): 5
- Plant response rating, Rice (rice; Rate 200 g/ha, PREEMERGENCE): 2
- Plant response rating, Chickweed (chickweed; POSTEMERGENCE, Rate 50 g/ha): 10
- Plant response rating, Chickweed (chickweed; POSTEMERGENCE, Rate 200 g/ha): 10
- Plant response rating, Chickweed (chickweed; PREEMERGENCE, Rate 50 g/ha): 6
- Plant response rating, Chickweed (chickweed; Rate 200 g/ha, PREEMERGENCE): 10
- Plant response rating, Cocklebur (cocklebur; POSTEMERGENCE, Rate 50 g/ha): 9
- Plant response rating, Cocklebur (cocklebur; POSTEMERGENCE, Rate 200 g/ha): 10
- Plant response rating, Cocklebur (cocklebur; PREEMERGENCE, Rate 50 g/ha): 2
- Plant response rating, Cocklebur (cocklebur; Rate 200 g/ha, PREEMERGENCE): 9
- Plant response rating, Corn (corn; POSTEMERGENCE, Rate 50 g/ha): 4
- Plant response rating, Corn (corn; POSTEMERGENCE, Rate 200 g/ha): 6
- Plant response rating, Corn (corn; PREEMERGENCE, Rate 50 g/ha): 0
- Plant response rating, Corn (corn; Rate 200 g/ha, PREEMERGENCE): 0
- Plant response rating, Lambsquarter (lambsquarters; POSTEMERGENCE, Rate 50 g/ha): 10
- Plant response rating, Lambsquarter (lambsquarters; PREEMERGENCE, Rate 50 g/ha): 10
- Plant response rating, Lambsquarter (lambsquarters; Rate 200 g/ha, POSTEMERGENCE): 10
- Plant response rating, Lambsquarter (lambsquarters; Rate 200 g/ha, PREEMERGENCE): 10
- Plant response rating, Velvetleaf (velvetleaf; POSTEMERGENCE, Rate 50 g/ha): 9
- Plant response rating, Velvetleaf (velvetleaf; PREEMERGENCE, Rate 50 g/ha): 10
- Plant response rating, Velvetleaf (velvetleaf; Rate 200 g/ha, POSTEMERGENCE): 10
- Plant response rating, Velvetleaf (velvetleaf; Rate 200 g/ha, PREEMERGENCE): 10
- Plant response rating, Morningglory (morningglory; POSTEMERGENCE, Rate 50 g/ha): 9
- Plant response rating, Morningglory (morningglory; PREEMERGENCE, Rate 50 g/ha): 9
- Plant response rating, Morningglory (morningglory; Rate 200 g/ha, POSTEMERGENCE): 10
- Plant response rating, Morningglory (morningglory; Rate 200 g/ha, PREEMERGENCE): 10
- Plant response rating, Nutsedge (purple nutsedge; POSTEMERGENCE, Rate 50 g/ha): 3
- Plant response rating, Nutsedge (purple nutsedge; PREEMERGENCE, Rate 50 g/ha): 0
- Plant response rating, Nutsedge (purple nutsedge; Rate 200 g/ha, POSTEMERGENCE): 3
- Plant response rating, Nutsedge (purple nutsedge; Rate 200 g/ha, PREEMERGENCE): 0
- Plant response rating, Giant foxtail (giant foxtail; POSTEMERGENCE, Rate 50 g/ha): 4
- Plant response rating, Giant foxtail (giant foxtail; PREEMERGENCE, Rate 50 g/ha): 2
- Plant response rating, Giant foxtail (giant foxtail; Rate 200 g/ha, POSTEMERGENCE): 6
- Plant response rating, Giant foxtail (giant foxtail; Rate 200 g/ha, PREEMERGENCE): 8
- Plant response rating, Sugar beet (sugar beet; POSTEMERGENCE, Rate 50 g/ha): 10
- Plant response rating, Sugar beet (sugar beet; PREEMERGENCE, Rate 50 g/ha): 10
- Plant response rating, Sugar beet (sugar beet; Rate 200 g/ha, POSTEMERGENCE): 10
- Plant response rating, Sugar beet (sugar beet; Rate 200 g/ha, PREEMERGENCE): 10
- Plant response rating, Cotton (cotton; POSTEMERGENCE, Rate 50 g/ha): 10
- Plant response rating, Cotton (cotton; POSTEMERGENCE, Rate 200 g/ha): 10
- Plant response rating, Cotton (cotton; PREEMERGENCE, Rate 50 g/ha): 1
- Plant response rating, Cotton (cotton; Rate 200 g/ha, PREEMERGENCE): 5
